One data set has as its system Vogel Conflict Test. Description: Vogel Conflict Test. In kind it is in vivo, rat. From the text:
In this model, continuous access to drinking water is withheld from rats for a certain time. After this period, free access is given to drinking water, but is coupled with a mild electrical stimulation. The conflict for the animals is between accepting the electrical stimulation or going without a drink.
The reactions to a conflict situation of this type are similar to the secondary phenomena of anxiety in man. The resulting avoidance reactions can be suppressed by anxiolytic substances. As a measure of the anxiolytic action, the number of tolerated current pulses of the animals treated with the test substance is assessed in comparison to the vehicle-treated control group.

The subject of data set [1] is maximal electroshock. Description: Anticonvulsive action, maximal electroshock (MES), mouse i.p. The format is in vivo. As to conditions: ip, read-out: Action, % of the protected animals. The protocol:
(§1) Compounds according to the present invention were tested in vivo for their anticonvulsive action as shown in Table 1 in mice by i.p. administration, or in rats administered orally according to the internationally customary standard (Pharmac. Weekblad, Sc.Ed. 14 132 (1992) and Antiepileptic Drugs, Third Ed., Raven Press, New York 1989). [table]
On the technique in general: Protection in the maximal electroshock model is a classic sign of anticonvulsant action.

Another data set relates to elevated maze test. Description: Elevated maze test. In kind it is in vivo, mouse. As to conditions: for Activity in % (length of stay in the open arms, control = 100): mouse, intraperitoneal. From the text:
In this model, mice are placed in an elevated passage system with open and closed arms as described by Pellow, S., Chopin, P., File S. E., Briley, M.: Validation of open: closed arm entries in an elevated plus-maze as a measure of anxiety in rats. J. of Neuroscience Methods 14: 149-167, 1985; Hogg, S.: A review of the validity and variability of the elevated plus-maze as an animal model of anxiety. Pharmacology Biochemistry and Behavior: 21-30, 1996. Untreated animals repeatedly try the closed passages. The inhibition of anxiety is measured by the length of stay in the open arms as a percentage of the total length of stay.

The test system of the next data set is s.c. pentetrazole. Description: Anticonvulsive action, s.c. pentetrazole (PTZ), mouse i.p. In kind it is in vivo. As to conditions: ip, read-out: Action, % of the protected animals. The protocol:
as §1

A short description of data set [2]: Octanol/water partition coefficient. The format is physicochemical. As to conditions: read-out: log P (octanol/water partition coefficient).
A further data set concerns neurotoxicity. Description: Neurotoxicity, rat. The format is in vivo. The protocol: (§2) Compounds according to the present invention were tested in vivo for their anticonvulsive action as shown in Table 1 in mice by i.p. administration, or in rats administered orally according to the internationally customary standard (Pharmac. Weekblad, Sc.Ed. 14 132 (1992) and Antiepileptic Drugs, Third Ed., Raven Press, New York 1989).
(§3) Analogous results were obtained for oral action.

Data set [3] deals with maximal electroshock. Description: Maximal electroshock, rat p.o. In kind it is in vivo. As to conditions: po. The protocol: as §2, §3
Data set [4] relates to pentetrazol convulsion model. Briefly: Pentetrazol convulsion model, rat p.o. The format is in vivo. As to conditions: po. The protocol: as §2, §3

With `O=C1C=C(N2CCOCC2)CN1c1ccc(Cl)cc1` [Compound 4, 1-(4-chlorophenyl)-4-morpholin-4-yl-1,5-dihydropyrrol-2-one], the therapeutic index in the data set on Vogel Conflict Test (Vogel Conflict Test) and with elevated maze test (elevated maze test) was more than 50 in each case. Besides, the “Changed number of impulses to the control in %” value is recorded as 102% with Vogel Conflict Test (rat, 3 mg/kg p.o.) and 174% with Vogel Conflict Test (rat, 10 mg/kg p.o.). Further, in the data set with Vogel Conflict Test (rat, p.o.), the “dose from which an anxiolytic action was detected / equally effective dose” value amounted to 10 mg/kg. Moreover, in the data set with maximal electroshock [1] (dose 300 mg/kg), the responders at 300 mg/kg turned out to be 0%. Also, the “proportionate length of stay in the open arms (in words)” value in the data set with elevated maze test (intraperitoneal administration) was “significantly increased”. For the same molecule, the “Activity in % (length of stay in the open arms, control = 100)” value is 128 (p < 0.05) % in the data set with elevated maze test (1 mg/kg), 110% with elevated maze test (3 mg/kg), 158 (p < 0.05) % with elevated maze test (10 mg/kg) and 129% in the data set with elevated maze test (30 mg/kg). Also, the responders at 30 mg/kg in the data set on s.c. pentetrazole (dose 30 mg/kg) is 100%. Further, in [2], the logP was 1.91.
In the data set with neurotoxicity, `O=C1C=C(N2CCOCC2)CN1c1ccc(Cl)cc1` [1-(4-chlorophenyl)-4-morpholin-4-yl-1,5-dihydropyrrol-2-one] returned an NT50 neurotoxicity of more than 500 mg/kg. Further, the ED50 in the data set with maximal electroshock [3] was found to be 19 mg/kg; in data set [4], 11 mg/kg.
`O=C1C=C(N2CCOCC2)CN1c1ccc(F)c(Cl)c1` [Compound 10, 1-(3-chloro-4-fluorophenyl)-4-morpholin-4-yl-1,5-dihydropyrrol-2-one] gave a melting point of 162 to 166 °C. Further, the responders at 100 mg/kg with maximal electroshock [1] (dose 100 mg/kg) is 100%. Also, in the data set on s.c. pentetrazole (dose 100 mg/kg), the responders at 100 mg/kg was found to be 100%. In addition, the logP in data set [2] stood at 2.19.

By ED50 is commonly meant the midpoint of the dose-response relation. High values mean weaker potency, low ones greater potency. One may read the melting point as the temperature, or range, at which the solid turns liquid.

The values above are taken from patent publication US6500821B1, “4-amino-1-aryl-1,5-dihydropyrrol-2-ones and process for making” (Arzneimittelwerk Dresden GmbH, priority 1999, dated 2002).
